pIC50, pKi: −log10 of the molar value.
Experiments:
[1] = DRUGMATRIX: Serotonin (5-Hydroxytryptamine) 5-HT3 radioligand binding (ligand: [3H] GR-65630); format: cell membranes, Membrane; conditions: hek293; Not Active = under 50% inhibition at 10 µM
Substance-K receptor = target: T1, Substance-K receptor (Homo sapiens, UniProt P21452); format: cell membranes, CHO, Membrane; conditions: cho; note: in other assays of this panel Not Active means under 50% inhibition at 10 µM
T1 sequence (P21452 whole entry): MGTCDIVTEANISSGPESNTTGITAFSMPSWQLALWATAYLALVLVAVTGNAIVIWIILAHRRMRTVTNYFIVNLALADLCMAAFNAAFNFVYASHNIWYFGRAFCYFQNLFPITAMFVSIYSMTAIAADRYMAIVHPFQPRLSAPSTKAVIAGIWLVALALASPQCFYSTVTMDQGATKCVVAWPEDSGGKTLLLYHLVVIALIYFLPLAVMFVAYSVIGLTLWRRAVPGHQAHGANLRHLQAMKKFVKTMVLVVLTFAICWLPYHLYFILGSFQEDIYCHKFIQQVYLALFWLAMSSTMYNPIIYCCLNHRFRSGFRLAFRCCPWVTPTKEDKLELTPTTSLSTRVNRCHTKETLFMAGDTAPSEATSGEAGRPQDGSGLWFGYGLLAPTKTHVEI

[2] = target: T2, Vasoactive intestinal polypeptide receptor 1 (Homo sapiens, UniProt P32241); format: cell membranes, Membrane; conditions: ht-29; note: in other assays of this panel Not Active means under 50% inhibition at 10 µM
T2 sequence (P32241 whole entry): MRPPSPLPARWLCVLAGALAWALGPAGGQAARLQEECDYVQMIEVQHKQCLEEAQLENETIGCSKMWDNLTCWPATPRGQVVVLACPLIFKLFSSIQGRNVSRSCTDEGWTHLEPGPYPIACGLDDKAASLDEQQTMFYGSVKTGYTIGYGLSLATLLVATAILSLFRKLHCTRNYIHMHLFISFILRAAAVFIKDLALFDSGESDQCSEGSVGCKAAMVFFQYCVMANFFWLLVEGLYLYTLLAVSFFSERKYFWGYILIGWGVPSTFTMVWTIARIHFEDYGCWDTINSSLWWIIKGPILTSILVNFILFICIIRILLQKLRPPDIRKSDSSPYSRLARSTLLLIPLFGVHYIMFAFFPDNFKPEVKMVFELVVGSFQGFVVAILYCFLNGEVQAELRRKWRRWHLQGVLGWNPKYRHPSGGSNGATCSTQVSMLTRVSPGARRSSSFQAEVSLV

[3] = DRUGMATRIX: Calcium Channel Type L, Phenylalkylamine radioligand binding (ligand: [3H] (-)-Desmethoxyverapamil (D-888)); format: cell membranes, Rattus norvegicus, Wistar, Brain, Membrane; conditions: Not Active = under 50% inhibition at 10 µM; for pIC50: read-out: IC50; for pKi: read-out: Ki
[4] = target: T3, C-X-C chemokine receptor type 2 (Homo sapiens, UniProt P25025); format: cell membranes, Membrane; conditions: cho-k1; note: in other assays of this panel Not Active means under 50% inhibition at 10 µM
T3 sequence (P25025 whole entry): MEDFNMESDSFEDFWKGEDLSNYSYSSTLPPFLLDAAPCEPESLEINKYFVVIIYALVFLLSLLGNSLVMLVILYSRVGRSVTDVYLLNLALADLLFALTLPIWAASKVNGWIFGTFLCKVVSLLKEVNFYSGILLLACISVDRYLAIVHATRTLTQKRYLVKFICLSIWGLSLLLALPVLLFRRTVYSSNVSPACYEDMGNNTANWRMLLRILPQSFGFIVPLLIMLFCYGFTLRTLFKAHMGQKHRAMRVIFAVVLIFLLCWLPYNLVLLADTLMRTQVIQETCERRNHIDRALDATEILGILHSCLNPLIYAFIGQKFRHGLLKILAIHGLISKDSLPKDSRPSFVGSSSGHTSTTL

[5] = target: T4, Neuropeptide Y receptor type 1 (Homo sapiens, UniProt P25929); format: cell membranes, Membrane; conditions: sk-n-mc; note: in other assays of this panel Not Active means under 50% inhibition at 10 µM
T4 sequence (P25929 whole entry): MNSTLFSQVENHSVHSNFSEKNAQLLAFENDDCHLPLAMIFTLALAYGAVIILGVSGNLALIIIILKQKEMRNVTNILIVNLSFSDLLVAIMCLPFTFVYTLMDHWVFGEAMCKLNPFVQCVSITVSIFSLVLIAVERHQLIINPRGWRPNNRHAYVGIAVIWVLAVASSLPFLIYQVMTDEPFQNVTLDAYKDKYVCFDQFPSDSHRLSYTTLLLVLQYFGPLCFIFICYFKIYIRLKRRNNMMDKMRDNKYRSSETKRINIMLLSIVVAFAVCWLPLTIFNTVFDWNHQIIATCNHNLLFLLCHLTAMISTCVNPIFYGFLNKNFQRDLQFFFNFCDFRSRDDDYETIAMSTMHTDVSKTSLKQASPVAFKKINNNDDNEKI

[6] = DRUGMATRIX: Phosphodiesterase PDE4 enzyme inhibition (substrate: [3H]cAMP + cAMP); conditions: u-937; Not Active = under 50% inhibition at 10 µM
[7] = DRUGMATRIX: Platelet-Derived Growth Factor (PDGF) radioligand binding (ligand: [125I] PDGF); format: cell-based; conditions: nih3t3; Not Active = under 50% inhibition at 10 µM
[8] = target: T5, 5-hydroxytryptamine receptor 1A (Rattus norvegicus, UniProt P19327); format: cell membranes, CHO-K1, Membrane; conditions: for IC50: cho-k1
T5 sequence (P19327 whole entry): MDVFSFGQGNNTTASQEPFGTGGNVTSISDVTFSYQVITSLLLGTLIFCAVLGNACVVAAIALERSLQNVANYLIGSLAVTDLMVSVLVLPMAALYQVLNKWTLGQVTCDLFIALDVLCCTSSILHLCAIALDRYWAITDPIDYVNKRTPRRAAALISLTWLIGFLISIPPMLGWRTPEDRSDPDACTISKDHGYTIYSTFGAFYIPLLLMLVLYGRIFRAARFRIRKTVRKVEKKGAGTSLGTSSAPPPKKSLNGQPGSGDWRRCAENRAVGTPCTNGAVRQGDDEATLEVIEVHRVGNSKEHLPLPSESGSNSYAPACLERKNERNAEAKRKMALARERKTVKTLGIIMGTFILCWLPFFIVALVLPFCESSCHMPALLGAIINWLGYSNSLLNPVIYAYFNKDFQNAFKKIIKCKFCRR

Adenosine receptor A3 = target: T6, Adenosine receptor A3 (Homo sapiens, UniProt P0DMS8); format: cell membranes, CHO-K1, Membrane; conditions: cho-k1
T6 sequence (P0DMS8 whole entry): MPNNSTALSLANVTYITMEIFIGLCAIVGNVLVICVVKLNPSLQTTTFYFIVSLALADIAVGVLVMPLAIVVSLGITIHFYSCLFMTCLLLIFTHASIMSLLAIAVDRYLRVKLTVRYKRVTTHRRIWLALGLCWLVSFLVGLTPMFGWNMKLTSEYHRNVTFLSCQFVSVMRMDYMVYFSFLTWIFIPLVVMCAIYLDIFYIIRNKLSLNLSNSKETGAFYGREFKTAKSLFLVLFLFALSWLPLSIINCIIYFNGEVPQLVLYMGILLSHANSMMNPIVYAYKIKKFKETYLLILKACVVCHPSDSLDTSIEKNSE

SMILES	IC50 [1]	Ki [1]	IC50 (Substance-K receptor)	IC50 [2]	IC50 [3]	Ki [3]	IC50 [4]	IC50 [5]	IC50 [6]	Ki [6]	IC50 [7]	Ki [7]	IC50 [8]	IC50 (Adenosine receptor A3)	pIC50 [3]	pKi [3]	pIC50 ([8]; read-out: IC50)	pKi ([8]; read-out: Ki)
N=C(N)NCCCCNC(=N)N.O=S(=O)(O)O [ARCAINE SULFATE]	Not Active	Not Active	Not Active	Not Active	Not Active	Not Active	Not Active	Not Active	Not Active	Not Active	Not Active	Not Active	Not Active	Not Active				
Oc1cccc2cccnc12 [OXYQUINOLINE]	Not Active	Not Active	Not Active	Not Active	Not Active	Not Active	Not Active	Not Active	Not Active	Not Active	Not Active	Not Active	Not Active	Not Active				
CN1CCC[C@H]1c1cccnc1 [NICOTINE]	Not Active	Not Active	Not Active	Not Active	Not Active	Not Active	Not Active	Not Active	Not Active	Not Active	Not Active	Not Active	Not Active	Not Active				
NCC[C@H](O)C(=O)N[C@@H]1C[C@H](N)[C@@H](O[C@H]2O[C@H](CN)[C@@H](O)[C@H](O)[C@H]2O)[C@H](O)[C@H]1O[C@H]1O[C@H](CO)[C@@H](O)[C@H](N)[C@H]1O [AMIKACIN]	Not Active	Not Active	Not Active	Not Active	Not Active	Not Active	Not Active	Not Active	Not Active	Not Active	Not Active	Not Active	Not Active	Not Active				
C/C=C1\[C@H]2C=C(C)C[C@]1(N)c1ccc(=O)[nH]c1C2 [HUPERZINE A]	Not Active	Not Active	Not Active	Not Active	Not Active	Not Active	Not Active	Not Active	Not Active	Not Active	Not Active	Not Active	Not Active	Not Active				
CC(/C=C1\SC(=S)N(CC(=O)O)C1=O)=C\c1ccccc1	Not Active	Not Active	Not Active	Not Active	Not Active	Not Active	Not Active	Not Active	Not Active	Not Active	Not Active	Not Active	Not Active	Not Active				
CCC1(c2ccccc2)C(=O)NCNC1=O [PRIMIDONE]	Not Active	Not Active	Not Active	Not Active	Not Active	Not Active	Not Active	Not Active	Not Active	Not Active	Not Active	Not Active	Not Active	Not Active				
CNCCC=C1c2ccccc2CCc2ccccc21 [NORTRIPTYLINE]	Not Active	Not Active	Not Active	Not Active			Not Active	Not Active	Not Active	Not Active	Not Active	Not Active		Not Active	5.72	5.74	5.73	5.97
CCOC(=O)c1ccc(N)cc1 [BENZOCAINE]	Not Active	Not Active	Not Active	Not Active	Not Active	Not Active	Not Active	Not Active	Not Active	Not Active	Not Active	Not Active	Not Active	Not Active				
Fc1ccc([C@@H]2CCNC[C@H]2COc2ccc3c(c2)OCO3)cc1 [PAROXETINE]	Not Active	Not Active	Not Active	Not Active			Not Active	Not Active	Not Active	Not Active	Not Active	Not Active	Not Active	Not Active	6.13	6.14		

Source: ChEMBL document CHEMBL1909046, “DrugMatrix in vitro pharmacology data”
